# Key:
# [1] = test system: leukotriene pathway in human whole blood (LTB4 levels); assay: Human whole blood assay (A23187-stimulated LTB4); format: cell-based; details: Homo sapiens, human whole blood diluted 1:1, A23187-stimulated; read-out: LTB4 IC50 1:1
# In short: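 Compounds are pre-incubated 15 min at 37° Celsius in RPMI-diluted (1:1) heparinised whole blood before a 30 min A23187 stimulus (7 μg/mL). Plasma LTB4 is read by immunoassay kit, with IC50 calculated from a 4-parameter equation.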
# human FLAP = human FLAP (Homo sapiens (Human), UniProt P20292); assay: FLAP binding assay (HTRF format); details: wild type FLAP, HTRF format
# In short: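 Samples were run in duplicate on each of two plates and the plate results averaged. Read-out is the HTRF signal ratio.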
# Sequence of human FLAP (P20292 whole entry): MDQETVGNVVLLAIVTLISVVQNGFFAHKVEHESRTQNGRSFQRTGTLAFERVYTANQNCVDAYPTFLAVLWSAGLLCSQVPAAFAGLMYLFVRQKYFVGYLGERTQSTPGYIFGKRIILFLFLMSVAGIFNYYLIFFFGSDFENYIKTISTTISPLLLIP
Structure (SMILES),IC50 [1] [nM],Ki (human FLAP) [nM]
"CC(C)Oc1ncccc1-c1ccc(-c2cnc(N)nc2)c(F)c1 [Example 408, 5-{2-Fluoro-4-[2-(1-methylethoxy)pyridin-3-yl]phenyl}pyrimidin-2-amine]",1140,128
"N#Cc1nc(-c2ccc(-c3ccccc3S(=O)(=O)C3CC3)cc2F)cnc1N [Example 411, 3-Amino-6-[2′-(cyclopropylsulfonyl)-3-fluorobiphenyl-4-yl]pyrazine-2-carbonitrile]",1970,36
"CC(C)(C)NS(=O)(=O)c1ccccc1-c1ccc(-c2ccc(N)nn2)c(F)c1 [Example 417, 4′-(6-Aminopyridazin-3-yl)-N-tert-butyl-3′-fluorobiphenyl-2-sulfonamide]",726,108
"CC(C)(C)NS(=O)(=O)c1ccccc1-c1ccc(-c2ccc3nccnc3c2)c(F)c1 [Example 420, N-tert-Butyl-3′-fluoro-4′-quinoxalin-6-ylbiphenyl-2-sulfonamide]",3280,86
"CC(C)(C)NS(=O)(=O)c1ccccc1-c1ccc(-c2ccc3[nH]cnc3c2)c(F)c1 [Example 422, 4′-(1H-Benzimidazol-5-yl)-N-tert-butyl-3′-fluorobiphenyl-2-sulfonamide]",146,3
"CNS(=O)(=O)c1ccccc1-c1ccc(-c2ccc3[nH]cnc3c2)c(F)c1 [Example 423, 4′-(1H-Benzimidazol-5-yl)-3′-fluoro-N-methylbiphenyl-2-sulfonamide]",4800,284
"CC(C)(C)NS(=O)(=O)c1ccccc1-c1ccc(-c2ccc3scnc3c2)c(F)c1 [Example 424, 4′-(1,3-Benzothiazol-5-yl)-N-tert-butyl-3′-fluorobiphenyl-2-sulfonamide]",> 10000,10
"CC(C)(C)NS(=O)(=O)c1ccccc1-c1ccc(-c2cnc3cc[nH]c3c2)c(F)c1 [Example 425, N-tert-Butyl-3′-fluoro-4′-(1H-pyrrolo[3,2-b]pyridin-6-yl)biphenyl-2-sulfonamide]",111,2
"CNS(=O)(=O)c1ccccc1-c1ccc(-c2cnc3[nH]ccc3c2)c(F)c1 [Example 426, 3′-Fluoro-N-methyl-4′-(1H-pyrrolo[2,3-b]pyridin-5-yl)biphenyl-2-sulfonamide]",73,2
"CC(C)(C)NS(=O)(=O)c1ccccc1-c1ccc(-c2ccc(N)cn2)c(F)c1 [Example 427, 4′-(5-Aminopyridin-2-yl)-N-tert-butyl-3′-fluorobiphenyl-2-sulfonamide]",1600,54
"CC(C)(C)NS(=O)(=O)c1ccccc1-c1ccc(-c2cnc(N)c(N)n2)c(F)c1 [Example 428, N-tert-Butyl-4′-(5,6-diaminopyrazin-2-yl)-3′-fluorobiphenyl-2-sulfonamide]",4,4
"CC(C)(C)NS(=O)(=O)c1ccccc1-c1ccc(-c2cnc3[nH]c(=O)[nH]c3n2)c(F)c1 [Example 429, N-tert-Butyl-3′-fluoro-4′-(2-oxo-2,3-dihydro-1H-imidazo[4,5-b]pyrazin-5-yl)biphenyl-2-sulfonamide]",209,13
"CC(C)(C)NS(=O)(=O)c1ccccc1-c1ccc(-c2cnc3c(c2)CCN3)c(F)c1 [Example 431, N-tert-Butyl-4′-(2,3-dihydro-1H-pyrrolo[2,3-b]pyridin-5-yl)-3′-fluorobiphenyl-2-sulfonamide]",9,1
"CC(C)(C)NS(=O)(=O)c1ccccc1-c1ccc(-c2cnc3[nH]cnc3c2)c(F)c1 [Example 432, N-tert-Butyl-3′-fluoro-4′-(3H-imidazo[4,5-b]pyridin-6-yl)biphenyl-2-sulfonamide]",19,4
"COc1nc(-c2ccc(-c3ccccc3S(=O)(=O)NC(C)(C)C)cc2F)cnc1N [Example 433, 4′-(5-Amino-6-methoxypyrazin-2-yl)-N-tert-butyl-3′-fluorobiphenyl-2-sulfonamide]",25,1
"CC(C)(C)NS(=O)(=O)c1ccccc1-c1ccc(-c2cnc(N)c(C#N)n2)c(F)c1 [Example 434, 4′-(5-Amino-6-cyanopyrazin-2-yl)-N-tert-butyl-3′-fluorobiphenyl-2-sulfonamide]",36,1
"CC(C)(C)NS(=O)(=O)c1ccccc1-c1ccc(-c2ncc(N)nc2C#N)c(F)c1 [Example 435, 4′-(5-Amino-3-cyanopyrazin-2-yl)-N-tert-butyl-3′-fluorobiphenyl-2-sulfonamide]",166,9
"CC(C)(C)NS(=O)(=O)c1ccccc1-c1ccc(-c2cnc(N)cc2C#N)c(F)c1 [Example 436, 4′-(6-Amino-4-cyanopyridin-3-yl)-N-tert-butyl-3′-fluorobiphenyl-2-sulfonamide]",3280,308
"CC(C)(C)NS(=O)(=O)c1ccccc1-c1ccc(-c2ccc(N)nc2C#N)c(F)c1 [Example 437, 4′-(6-Amino-2-cyanopyridin-3-yl)-N-(tert-butyl)-3′-fluoro-[1,1′-biphenyl]-2-sulfonamide]",381,23
"CC(C)(C)NS(=O)(=O)c1ccccc1-c1ccc(-c2nnc(N)s2)c(F)c1 [Example 438, 4′-(5-Amino-1,3,4-thiadiazol-2-yl)-N-(tert-butyl)-3′-fluoro-[1,1′-biphenyl]-2-sulfonamide]",17,1
"C[C@H](CO)NS(=O)(=O)c1ccccc1-c1ccc(-c2nnc(N)s2)c(F)c1 [Example 439, (R)-4′-(5-Amino-1,3,4-thiadiazol-2-yl)-3′-fluoro-N-(1-hydroxypropan-2-yl)-[1,1′-biphenyl]-2-sulfonamide]",300,63
"Nc1nnc(-c2ccc(-c3ccccc3S(=O)(=O)N3CCS(=O)(=O)CC3)cc2F)s1 [Example 440, 4-((4′-(5-Amino-1,3,4-thiadiazol-2-yl)-3′-fluoro-[1,1′-biphenyl]-2-yl)sulfonyl)thiomorpholine 1,1-dioxide]",215,31
"CC(C)(C)NS(=O)(=O)c1ccccc1-c1ccc(-c2cnc(N)c(Cl)n2)c(F)c1 [Example 441, 4′-(5-Amino-6-chloropyrazin-2-yl)-N-tert-butyl-3′-fluorobiphenyl-2-sulfonamide]",6,1
"CC(C)(C)NS(=O)(=O)c1ccccc1-c1ccc(-c2cnc(N)c(Br)n2)c(F)c1 [Example 442, 4′-(5-Amino-6-bromopyrazin-2-yl)-N-tert-butyl-3′-fluorobiphenyl-2-sulfonamide]",9,1
"N#Cc1nc(N)ccc1-c1ccc(-c2ccccc2S(=O)(=O)C2CC2)cc1F [Example 443, 6-Amino-3-(2′-(cyclopropylsulfonyl)-3-fluoro-[1,1′-biphenyl]-4-yl)picolinonitrile]",3330,343
"CC(C)(C)NS(=O)(=O)c1ccccc1-c1ccc(-c2ccn3cnnc3c2)c(F)c1 [Example 444, N-tert-Butyl-3′-fluoro-4′-[1,2,4]triazolo[4,3-a]pyridin-7-ylbiphenyl-2-sulfonamide]",> 10000,183
"Cc1nc(-c2ccc(-c3ccccc3S(=O)(=O)NC(C)(C)C)cc2F)cnc1N [Example 445, 4′-(5-Amino-6-methylpyrazin-2-yl)-N-tert-butyl-3′-fluorobiphenyl-2-sulfonamide]",8,1

# From patent US9079866B2, “Flap modulators” (JANSSEN PHARMACEUTICA NV, priority 2013, dated 2015)
